# Data taken from patent US20010051631A1, “Tricyclic compounds, their production and use” (priority 1994, published 2001).
# Assays:
# [1] = tested on: spontaneously hypertensive rats (SHRs); experiment: Antihypertensive action in spontaneously hypertensive rats (SHRs); assay type: in vivo, rat; details: SHR, oral
# Method: Method: Male SHR at ages ranging from 20 to 24 weeks were anesthetized with pentobarbital.sodium (50 mg/kg, i.p.) and, from the femoral artery of each animal, a polyethylene tube was inserted. The polyethylene tube was connected to a pressure transducer and blood pressure after oral administration of drugs was recorded continuously under non-anesthesia. The animals, after the operation, were allowed to freely access to drinking water and eating, until administration of the drugs. The compounds were all orally administered as a suspension in gum arabic (2 ml/kg).
# hamsters = experiment: Cholesterol lowering effects in hamsters; assay type: in vivo, Syrian hamsters
# Method: Method: Syrian hamsters of 10 weeks old were stabilized with common feed for two weeks. The animals were grouped based on the total cholesterol in blood. The vehicle (water) or drug was orally administered in a volume of 2 ml/kg for two weeks. During the period of the administration, blood was collected from retinal vessels with passage of time and the total cholesterol and triglyceride in blood were determined. On the other hand, blood was collected from abdominal aorta on the second week after the consecutive administration of the test compounds to determine the total cholesterol, triglyceride and HDL (high density lipid)-cholesterol in blood. Cholesterol C-test, triglyceride G-test and HDL-cholesterol E test (all manufactured by Wako Pure Chemical Industries, Ltd.) were used for the determination of these parameters, respectively.
# Hs68 cells = experiment: PDGF-induced proliferation in Hs68 cells (3H-thymidine uptake); assay type: cell-based, Human; details: Hs68, PDGF-BB 5 ng/ml, concentration 1 × 10^−6 M
# Method: Method: Human skin fibroblasts (Hs68, Institute for Fermentation, Osaka) were seeded in 48-well plates precoated with collagen type I (Falcon) (25000 cells/well), and cultured for one day. Then, the cells were cultured in Dulbecco's modified Eagle's medium (high glucose) containing 0.1% bovine serum albumin for 48 hours. Fifteen (15) minutes after the addition of the drug, the cells were stimulated with 5 ng/ml of PDGF-BB (Becton Dickinson Labware) containing 3H-thymidine (final concentration 0.4 mCi/ml) (Amersham). After 24 hours, the reaction was stopped with 7.5% trichloroacetic acid at 4° C. and the plate was allowed to stand at 4° C. for 30 minutes. The cells were washed with Ca^2+- and Mg^2-free phosphate-buffered saline (PBS), after then 0.1% sodium dodecyl sulfate (SDS)/0.4N NaOH was added and the plate was allowed to stand at 37° C. for 1 hour to lyze the cells. The whole content of each well was taken in a vial and neutralized with 1N HCl, and then toluene scintillator (Wako Pure Chemical Ind.) was added to each vial. After stirring, the amount of ^3H-thymidine incorporated in the cells was determined with a liquid scintillation counter. The cellular uptake of ^3H-thymidine was used as an indicator of cell proliferation. The effect of the drug on the PDGF-BB (5 ng/ml) uptake of ^3H-thymidine was expressed as % inhibition.
# 5/6 nephrectomized rats = experiment: Antiproteinuric effect in 5/6 nephrectomized rats; assay type: in vivo, Sprague Dawley rats
# Method: Method: Male Sprague Dawley rats of five-week old (Japan Clea) were anesthetized with pentobarbital.sodium (50 mg/kg, i.p.), and the right kidney was excised by dorsal incision, and its two-thirds were cut. Two weeks later, the whole of left kidney was removed. In the Sham group, only the second operation was performed. In two weeks after the second operation, urine was collected for 24 hours under drinking water ad libitum. Urinary albumin and total protein were quantitatively determined by the use of A/G B-test (Wako). On the following day of collecting urine, the blood pressure was measured by the tail cuff method. Test animals showing more proteinuria than that of Sham group were selected. Based on the amount of the proteinuria and the blood pressure level, the animals were grouped so that, the average and distribution of urinary protein and blood pressure same in each group. The drug was suspended in gumarabic/water or dissolved in water, and orally administered once a day for 6-8 weeks in a volume of 2 ml/kg. The administration was consecutively performed, and, at 2, 4, 6 and 8th weeks of treatment, urine was collected and blood pressure was measured. The vehicle group was orally administered with only water at a dose of 2 ml/kg.
# PDGF-induced contraction = experiment: Inhibitory effects on the contraction due to PDGF (isolated thoracic aorta strips); set-up: species or system stroke prone spontaneously hypertensive rats; details: 1.7 nM PDGF-AB, drug added 30 minutes before
# Method: Method: The thoracic aorta of stroke prone spontaneously hypertensive rats at ages ranging from 16 to 36 weeks were isolated, and strip (2 mm in width, 2 cm in length) were prepared from the aorta. Each strip was mounted in 10 ml of an organ bath, which was loaded at 2 g and allowed to stabilized for 2 to 3 hours. As the nutrient, a Krebs-Henseleit solution, bubbled with a mixture gas (95% O2, 5% CO2), was used. At the time when the contraction response against 60 mM KCl becomes constant, each strip was applied by 1.7 nM of PDGF-AB (Cosmobio Inc.) for contraction. Observation was continued until the contraction become maximum and stable (30 to 40 minutes after application of PDGF-AB). Then, the strips were washed, and, in about one hour later (after the tone of the vaso-contraction was recovered to the original level), 10 μl of the drug (DMSO solution) was added. Thirty minutes after drug, 1.7 nM of PDGF-AB was added again and subjected to observation until the contraction became maximum. The PDGF-AB-induced contraction was isometrically recorded on a polygraph (Nihon Denki San-ei). From the contractile response of the strips to PDGF-AB in the absence or presence of drugs, % inhibition of each drug was calculated. IC50 value for the inhibitory effects was calculated in accordance with the Filler's theorem using the least squares method.
# [2] = 3 mg/kg oral once a day, 0 weeks
# [3] = 3 mg/kg oral once a day, 2 weeks
# [4] = 3 mg/kg oral once a day, 4 weeks
# [5] = 3 mg/kg oral once a day, 6 weeks
# [6] = 3 mg/kg oral once a day, 8 weeks
# [7] = 10 mg/kg oral once a day, 0 weeks
# [8] = 10 mg/kg oral once a day, 2 weeks
# [9] = 10 mg/kg oral once a day, 4 weeks
# [10] = 10 mg/kg oral once a day, 6 weeks
# [11] = 10 mg/kg oral once a day, 8 weeks
compound,measurement,setting,value
"1,2-Dihydro-3-methyl-1-[3,3-dimethyl-5-(trifluoromethanesulfonamido)pentan-1-yl]-1,4,7b-triazacyclopent[cd]inden-2-one.hydrochloride [Example 40]",blood-pressure change,"[1]; 30 mg/kg, after 7 hrs.",−20 [after 7 hrs.] mmHg
"1,2-Dihydro-3-methyl-1-[4-(methoxycarbonylamino)butan-1-yl]-1,4,7b-triazacyclopento[cd]inden-2-one.hydrochloride [Example 37]",blood-pressure change,"[1]; 30 mg/kg, after 5 hrs.",−14 [after 5 hrs.] mmHg
"1,2-Dihydro-3-methyl-1-[4-[(2,2,2-trifluoro)ethanesulfonamido]butan-1-yl]-1,4,7b-triazacyclopent[cd]inden-2-one.hydrochloride [Example 38]",blood-pressure change,"[1]; 30 mg/kg, after 4 hrs.",−19 [after 4 hrs.] mmHg
"1,2-Dihydro-3-methyl-1-[6-(trifluoromethanesulfon-amido)hexan-1-yl)-1,4,7b-triazacyclopent[cd]inden-2-one.hydrochloride [Example 28]",blood-pressure change,"[1]; 30 mg/kg, after 3 hrs.",−13 [after 3 hrs.] mmHg
same,"TC (total cholesterol in blood), % of Vehicle",hamsters; 30 mg/kg oral for two weeks,65.1 % of Vehicle
same,"TC-HDL ([total cholesterol value]-[HDL-cholesterol value]), % of Vehicle",hamsters; 30 mg/kg oral for two weeks,61.6 % of Vehicle
"O=C1c2cnc3cccc(n23)CN1CCC1CCN(S(=O)(=O)C(F)(F)F)CC1 [86 (ii), 4,5-dihydro-4-[2-(1-trifluoromethane-sulfonylpiperidin-4-yl)ethan-1-yl]-3H-1,4,8b-triazaace-naphthylen-3-one]",% Inhibition of cell proliferation (3H-thymidine uptake),Hs68 cells,96.6%
"Cl.Cl.O=S(=O)(NCCCCN1Cc2cccc3ncc(n23)C1)C(F)(F)F [Example 1, 4,5-Dihydro-4-[4-(trifluoromethanesulfonamido)butan-1-yl]-3H-1,4,8b-triazaacenaphthylene.dihydrochloride]",blood-pressure change,"[1]; 10 mg/kg, after 5 hrs.",−21 [after 5 hrs.] mmHg
same,Urinary albumin excretion,5/6 nephrectomized rats; [2],11.2 mg/day
same,Urinary protein excretion,5/6 nephrectomized rats; [2],114.5 mg/day
same,Urinary albumin excretion,5/6 nephrectomized rats; [3],16.9 mg/day
same,Urinary protein excretion,5/6 nephrectomized rats; [3],117.0 mg/day
same,Urinary albumin excretion,5/6 nephrectomized rats; [4],18.4 mg/day
same,Urinary protein excretion,5/6 nephrectomized rats; [4],98.2 mg/day
same,Urinary albumin excretion,5/6 nephrectomized rats; [5],13.0 mg/day
same,Urinary protein excretion,5/6 nephrectomized rats; [5],156.3 mg/day
same,Urinary albumin excretion,5/6 nephrectomized rats; [6],25.1 mg/day
same,Urinary protein excretion,5/6 nephrectomized rats; [6],102.8 mg/day
same,"TC (total cholesterol in blood), % of Vehicle",hamsters; 30 mg/kg oral for two weeks,64.1 % of Vehicle
same,"TC-HDL ([total cholesterol value]-[HDL-cholesterol value]), % of Vehicle",hamsters; 30 mg/kg oral for two weeks,68.9 % of Vehicle
same,IC50,PDGF-induced contraction,2.13 µM
"Cc1nc2cccc3n2c1CN(CCCCNS(=O)(=O)C(F)(F)F)C3.Cl.Cl [Example 3, 4,5-Dihydro-2-methyl-4-[4-(trifluoromethanesulfonamido)butan-1-yl]-3H-1,4,8b-triazaacenaphthylene.dihydrochloride]","TC (total cholesterol in blood), % of Vehicle",hamsters; 10 mg/kg oral for two weeks,82.2 % of Vehicle
same,"TC-HDL ([total cholesterol value]-[HDL-cholesterol value]), % of Vehicle",hamsters; 10 mg/kg oral for two weeks,79.0 % of Vehicle
same,IC50,PDGF-induced contraction,0.29 µM
"Cl.O=C1c2cnc3cccc(n23)CN1CCCCNS(=O)(=O)C(F)(F)F [Example 6, 4,5-Dihydro-4-[4-(trifluoromethanesulfonamido)butan-1-yl]-3H-1,4,8b-triazaacenaphthylen-3-one.hydrochloride]",blood-pressure change,"[1]; 10 mg/kg, after 4 hrs.",−19 [after 4 hrs.] mmHg
same,Urinary albumin excretion,5/6 nephrectomized rats; [7],6.8 mg/day
same,Urinary protein excretion,5/6 nephrectomized rats; [7],114.1 mg/day
same,Urinary albumin excretion,5/6 nephrectomized rats; [8],13.5 mg/day
same,Urinary protein excretion,5/6 nephrectomized rats; [8],103.0 mg/day
same,Urinary albumin excretion,5/6 nephrectomized rats; [9],17.2 mg/day
same,Urinary protein excretion,5/6 nephrectomized rats; [9],93.9 mg/day
same,Urinary albumin excretion,5/6 nephrectomized rats; [10],13.1 mg/day
same,Urinary protein excretion,5/6 nephrectomized rats; [10],167.2 mg/day
same,Urinary albumin excretion,5/6 nephrectomized rats; [11],24.8 mg/day
same,Urinary protein excretion,5/6 nephrectomized rats; [11],117.3 mg/day
same,"TC (total cholesterol in blood), % of Vehicle",hamsters; 10 mg/kg oral for two weeks,89.5 % of Vehicle
same,"TC-HDL ([total cholesterol value]-[HDL-cholesterol value]), % of Vehicle",hamsters; 10 mg/kg oral for two weeks,84.6 % of Vehicle
same,IC50,PDGF-induced contraction,1.27 µM
"Cl.O=C1c2cnc3cccc(n23)CN1CCCCCNS(=O)(=O)C(F)(F)F [Example 8, 4,5-Dihydro-4-[5-(trifluoromethanesulfonamido)pentan-1-yl]-3H-1,4,8b-triazaacenaphthylen-3-one.hydrochloride]","TC (total cholesterol in blood), % of Vehicle",hamsters; 10 mg/kg oral for two weeks,81.5 % of Vehicle
same,"TC-HDL ([total cholesterol value]-[HDL-cholesterol value]), % of Vehicle",hamsters; 10 mg/kg oral for two weeks,77.1 % of Vehicle
same,IC50,PDGF-induced contraction,0.31 µM
"Cl.O=c1c2cccc3ncc(c(=O)n1CCCCNS(=O)(=O)C(F)(F)F)n32 [Example 11, 4,5-Dihydro-4-[4-(trifluoromethanesulfonamido)butan-1-yl]-3H-1,4,8b-triazaacenaphthylene-3,5-dione.hydrochloride]",blood-pressure change,"[1]; 30 mg/kg, after 7 hrs.",−31 [after 7 hrs.] mmHg
same,Urinary albumin excretion,5/6 nephrectomized rats; [7],10.2 mg/day
same,Urinary protein excretion,5/6 nephrectomized rats; [7],115.1 mg/day
same,Urinary albumin excretion,5/6 nephrectomized rats; [8],19.8 mg/day
same,Urinary protein excretion,5/6 nephrectomized rats; [8],69.1 mg/day
same,Urinary albumin excretion,5/6 nephrectomized rats; [9],30.3 mg/day
same,Urinary protein excretion,5/6 nephrectomized rats; [9],62.5 mg/day
same,Urinary albumin excretion,5/6 nephrectomized rats; [10],26.0 mg/day
same,Urinary protein excretion,5/6 nephrectomized rats; [10],170.3 mg/day
same,Urinary albumin excretion,5/6 nephrectomized rats; [11],38.3 mg/day
same,Urinary protein excretion,5/6 nephrectomized rats; [11],125.4 mg/day
"CC(C)(C)OC(=O)NCCCCn1c(=O)c2cccc3ncc(c1=O)n32 [Example 17, 4,5-Dihydro-4-[4-(tert-butoxycarbonylamino)butan-1-yl]-3H-1,4,8b-triazaacenaphthylene-3,5-dione]",melting point,,118 to 119 °C
Cc1ncc2ccc3n(CCCCCNS(=O)(=O)C(F)(F)F)c(=O)c1n23.Cl [Example 26],blood-pressure change,"[1]; 10 mg/kg, after 7 hrs.",−22 [after 7 hrs.] mmHg
same,"TC (total cholesterol in blood), % of Vehicle",hamsters; 30 mg/kg oral for two weeks,74.5 % of Vehicle
same,"TC-HDL ([total cholesterol value]-[HDL-cholesterol value]), % of Vehicle",hamsters; 30 mg/kg oral for two weeks,72.1 % of Vehicle
same,IC50,PDGF-induced contraction,0.37 µM
"Cc1ncc2ccc3n(CCCCCNS(=O)(=O)CC(F)(F)F)c(=O)c1n23.Cl [Example 27, 1,2-Dihydro-3-methyl-1-[5-[(2,2,2-trifluoro)-ethanesulfonamido]pentan-1-yl]-1,4,7b-triazacyclopent[cd]inden-2-one.hydrochloride]",blood-pressure change,"[1]; 30 mg/kg, after 7 hrs.",−17 [after 7 hrs.] mmHg
"CCS(=O)(=O)NCCCCn1c(=O)c2c(C)ncc3ccc1n32.Cl [Example 35, 1,2-Dihydro-3-methyl-1-[4-(ethanesulfonamido)butan-1-yl]-1,4,7b-triazacyclopent[cd]inden-2-one.hydrochloride]",blood-pressure change,"[1]; 30 mg/kg, after 2 hrs.",−14 [after 2 hrs.] mmHg
